From patent publication US10821099B2, “Use of tradipitant in motion sickness” (Vanda Pharmaceuticals Inc., priority 2018, dated 2020)
Like-named read-outs stand apart in the source and are kept apart here.

Assays:
[1] = system: NK-1 agonist (GR73632)-induced foot-tapping behavior; experiment: NK-1 agonist (GR73632, icv)-induced foot-tapping behavior in gerbils; assay type: in vivo, Mongolian gerbil
Experimental: Immediately after injection, animals are placed individually into isolated chambers with pressure-sensitive velocimeter platform floors (San Diego Instruments acoustic startle apparatus) that detect and quantify vibration. The San Diego Instruments “SR” DOS-based computer program is used on a PC to record the number of foot-taps over the following 6 to 10 minutes, beginning 30 seconds after the floor is lightly tapped. Raw data are converted with a Microsoft® Excel® (Microsoft® and Excel® are registered trademarks of Microsoft Corp., Redmond, Wash.) macro that determines the number of events over threshold (125) in each 250-millisecond time bin over the 5.5 minutes following onset of observation. The total number and average intensity of events over the duration is determined. Total number of taps is analyzed with one-way ANOVA and post-hoc Dunnett's test using JMP statistical software. A dose-response curve (with doses of 0.3, 1, 3 and 10 pmols, icv) is initially generated with the NK-1 agonist GR73632. […] NK-1 antagonists are tested for their ability to attenuate GR73632-induced foot tapping. NK-1 antagonists are administered (po) via oral feeding tube at doses and time points specified in each experiment. All animals receive only one dose of NK-1 antagonists in all tests. NK-1 antagonists are administered at multiple doses (at least 3; one dose per animal) and response to GR73632 is measured. NK-1 receptor antagonists are administered at multiple pre-treatment times (one administration per animal) including at 0.5, 1, 2, 4, 7, 16, and 24 hours prior to GR73632 injection. GR73632 (Peninsula Labs, CA) is dissolved in saline. Tradipitant is dissolved in 1% CMC/0.5% SLS/0.085% PVP vehicle.

[2] = system: vomiting due to motion sickness; conditions: crossover study; cited from earlier work
NK-3 receptor = target: T1, NK-3 receptor (Homo sapiens, UniProt P29371); experiment: NK-3 receptor inhibition; assay type: binding
T1 sequence (P29371 1-465): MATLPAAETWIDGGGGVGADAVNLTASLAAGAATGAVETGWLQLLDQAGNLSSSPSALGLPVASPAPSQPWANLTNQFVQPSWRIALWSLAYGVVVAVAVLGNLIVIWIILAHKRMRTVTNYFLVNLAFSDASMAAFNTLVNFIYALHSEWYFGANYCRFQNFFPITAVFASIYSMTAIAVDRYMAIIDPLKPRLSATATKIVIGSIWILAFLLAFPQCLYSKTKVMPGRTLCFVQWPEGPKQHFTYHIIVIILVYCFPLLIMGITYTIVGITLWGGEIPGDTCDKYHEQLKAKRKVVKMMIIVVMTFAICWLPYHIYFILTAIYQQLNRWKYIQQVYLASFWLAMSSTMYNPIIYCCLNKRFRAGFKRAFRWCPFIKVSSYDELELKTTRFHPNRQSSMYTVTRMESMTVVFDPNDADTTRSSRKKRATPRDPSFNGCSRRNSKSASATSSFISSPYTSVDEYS

NK-1 receptor [3] = target: T2, NK-1 receptor (Homo sapiens, UniProt P25103); experiment: SP-induced mobilization of intracellular calcium in U373 cells; assay type: cell-based; parameters: mobilization of intracellular calcium in U373 cells; endogenous in cells; host or cells: U373 cells
T2 sequence (P25103 whole entry): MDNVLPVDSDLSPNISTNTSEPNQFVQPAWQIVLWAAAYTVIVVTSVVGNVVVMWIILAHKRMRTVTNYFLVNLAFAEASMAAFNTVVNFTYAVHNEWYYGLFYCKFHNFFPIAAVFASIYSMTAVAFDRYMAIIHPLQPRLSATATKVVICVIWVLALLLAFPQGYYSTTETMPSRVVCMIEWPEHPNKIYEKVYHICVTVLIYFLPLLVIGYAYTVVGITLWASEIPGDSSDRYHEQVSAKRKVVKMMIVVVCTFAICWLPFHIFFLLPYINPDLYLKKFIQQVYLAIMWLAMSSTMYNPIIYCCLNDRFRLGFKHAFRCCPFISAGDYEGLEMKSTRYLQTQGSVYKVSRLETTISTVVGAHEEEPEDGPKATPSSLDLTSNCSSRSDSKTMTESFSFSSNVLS

[4] = system: panel of 74 other receptors, enzymes, and ion channels; experiment: Binding panel of 74 other receptors, enzymes and ion channels
NK-1 receptor [5] = target: T2, NK-1 receptor; experiment: [125I] substance P binding to the NK-1 receptor, IM-9 human cell membrane binding; parameters: NK-1 receptor expressed by IM-9 cells; endogenous in cells; host or cells: IM-9 human cells (membranes); conditions: Table 1
[6] = system: apomorphine-induced emesis; experiment: Emetic challenge study (apomorphine-induced emesis) in beagle dogs; assay type: in vivo, beagle dog; conditions: each dose tested (0.3, 1.0, and 3.0 mg/kg)
Experimental: Each animal is administered a different dose on a particular dosing day, so that each dose of tradipitant, aprepitant, and apomorphine alone is represented. Over the five (5) weeks of the study, each animal receives each of the treatments, but only one per week. The purpose of this study is to determine if tradipitant suppresses apomorphine-induced emesis.
(§1) All animals are dosed over a period of five (5) weeks, with each dog receiving one of five different treatments on each day of dosing. […] In cases where apomorphine is administered alone, without prior treatment with tradipitant or aprepitant, apomorphine is given at approximately the same time as when given in combination with tradipitant or aprepitant.
All dogs are fasted overnight prior to each treatment day and then fed approximately one (1) hour after oral dosing (approximately one (1) hour prior to administration of apomorphine). Individual doses are adjusted weekly for changes in body weight.
The dose regimen consists of a 5×5 Latin square design, in which each subject receives 1 dose or dose combination per week (6 day washout) as shown in Table 3 below.

[7] = system: NK-1 agonist (GR73632)-induced vocalization; experiment: GR73632-induced vocalization in guinea pigs; assay type: in vivo, guinea pig
Experimental: Male Dunkin/Hartley guinea pigs (200 to 250 grams) are orally administered either vehicle or an NK-1 antagonist. Approximately 45 minutes later (for dose response studies), the animals are anesthetized and 0.1 nmol of GR73632 (SP analog) in a vehicle volume of 5 μl is injected into the cerebral ventricle at the intersection of bregma and the midline of the skull. Animals are placed in a dark testing chamber located inside of a sound attenuation cubicle and vocalizations are recorded for 30 minutes following recovery from anesthesia. The time spent vocalizing is quantified for each animal. In the duration of action study, 0.1 mg/kg of tradipitant or vehicle solution is administered orally and then 2, 4, or 7 hours later, 0.1 nmol of GR73632 is administered into the cerebral ventricle as described above. Vocalizations are recorded and quantified as indicated above. Vehicle solutions are either CMC (FIG. 4 data) or an ethanol/emulphor solution (FIGS. 5 and 6). Data is analyzed using one-tailed t-tests.

[8] = Plasma concentration of tradipitant 2 hours post-dose in dogs; assay type: in vivo; conditions: male, beagle, dog, oral, read-out: Concentration of tradipitant in plasma, Mean (SD)
Experimental: as §1

NK-2 receptor = target: T3, NK-2 receptor (Homo sapiens, UniProt P21452); experiment: NK-2 receptor inhibition; assay type: binding
T3 sequence (P21452 1-398): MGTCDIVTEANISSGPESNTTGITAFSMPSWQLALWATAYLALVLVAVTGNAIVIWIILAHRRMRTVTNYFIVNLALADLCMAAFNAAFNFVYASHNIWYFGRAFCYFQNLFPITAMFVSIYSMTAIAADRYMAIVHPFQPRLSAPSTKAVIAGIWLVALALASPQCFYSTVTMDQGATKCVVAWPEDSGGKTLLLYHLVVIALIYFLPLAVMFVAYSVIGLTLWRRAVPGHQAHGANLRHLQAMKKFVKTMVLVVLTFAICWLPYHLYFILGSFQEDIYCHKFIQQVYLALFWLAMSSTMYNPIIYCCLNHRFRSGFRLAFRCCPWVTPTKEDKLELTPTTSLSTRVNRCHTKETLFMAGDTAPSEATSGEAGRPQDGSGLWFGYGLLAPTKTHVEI

## C[C@@H](O[C@H]1OCCN(Cc2n[nH]c(=O)[nH]2)[C@H]1c1ccc(F)cc1)c1cc(C(F)(F)F)cc(C(F)(F)F)c1 [Aprepitant, reference compound]
[1]; 1 mg/kg
  time after administration up to which foot-tapping is inhibited: up to 24 hours

## COc1ccc(C(C)(C)C)cc1CN[C@H]1C2CCN(CC2)[C@H]1C(c1ccccc1)c1ccccc1 [Maropitant]
[2]
  dogs in which the occurrence of vomiting was reduced as compared to placebo: over 75%

## O=C(c1ccccc1Cl)c1cccnc1-c1nnn(Cc2cc(C(F)(F)F)cc(C(F)(F)F)c2)c1-c1ccncc1 [Tradipitant, {2-[1-(3,5-bistrifluoromethylbenzyl)-5-pyridin-4-yl-1H-[1,2,3]triazol-4-yl]-pyridin-3-yl}-(2-chlorophenyl)-methanone]
NK-3 receptor
  inhibition at the NK-3 receptor: no significant inhibition
NK-1 receptor [3]
  Kb: 95 pM
[1]; 0.1 mg/kg, po
  time after administration up to which foot-tapping is significantly inhibited: up to 7 hours
[1]; 0.1 mg/kg, po, 16 hours
  effect on foot-tapping by 16 hours after administration: significantly diminished
[1]; Meriones unguiculatus, po, 1 mg/kg, 16 hours after administration
  inhibition at 1 mg/kg: > 50%
[1]; Meriones unguiculatus, oral, 2 hours after administration, GR73632 3 pmol icv, read-out: ED50, inhibition of foot-tapping behavior
  ED50: 0.03 ± 0.004 mg/kg
[4]
  activity in panel of 74 additional receptors, enzymes, and ion channels including NK-2 and NK-3 receptors: No significant activity
[4]; test concentration of 1 μM
  inhibition of binding: ≤ 50%
NK-1 receptor [5]
  Ki: 62 pM
[6]
  efficacy against apomorphine-induced emesis: effective against apomorphine-induced emesis
[7]; 0.1 mg/kg oral, 7 hours after administration
  suppression of agonist-induced vocalization at 7 hours: significantly active
[7]; administered orally
  duration of activity: exceeds 7 hours
[7]; at and below 0.1 mg/kg oral, FIG. 6
  inhibitory activity on vocalization at and below 0.1 mg/kg: retains significant inhibitory activity
[7]; oral doses of 10, 1.0, 0.1 and 0.05 mg/kg (each p<0.001), FIG. 4
  inhibition of agonist-induced vocalization: significant inhibition
[7]; oral, p<0.001 compared to controls
  minimum effective dose (MED), inhibition of vocalization: 0.025 mg/kg
[8]; 0.3 mg/kg, 0.3 mg/kg oral
  concentration at 2 h: 57.9 ng/mL
[8]; 1 mg/kg, 1.0 mg/kg oral
  concentration at 2 h: 133 ng/mL
[8]; 3 mg/kg, 3.0 mg/kg oral
  concentration at 2 h: 300 ng/mL
NK-2 receptor
  inhibition at the NK-2 receptor: no significant inhibition
